Target: T1, KivRFp (2-ketoisovalerate reductase) (Fusarium proliferatum, UniProt I3VQI5)
T1 construct: full length, 452 residues, 52 kDa, N-terminal His-tag (pET28a), codon-optimised synthetic gene, E. coli BL21(DE3), Ni-NTA purified
Experiment: spectrophotometric NADPH oxidation at […] nm
Format: biochemical
Conditions: 0.7 mM 2-Kiv, 50 mM sodium phosphate pH 7.0, 35 °C

T1 sequence (I3VQI5 entry or part of it): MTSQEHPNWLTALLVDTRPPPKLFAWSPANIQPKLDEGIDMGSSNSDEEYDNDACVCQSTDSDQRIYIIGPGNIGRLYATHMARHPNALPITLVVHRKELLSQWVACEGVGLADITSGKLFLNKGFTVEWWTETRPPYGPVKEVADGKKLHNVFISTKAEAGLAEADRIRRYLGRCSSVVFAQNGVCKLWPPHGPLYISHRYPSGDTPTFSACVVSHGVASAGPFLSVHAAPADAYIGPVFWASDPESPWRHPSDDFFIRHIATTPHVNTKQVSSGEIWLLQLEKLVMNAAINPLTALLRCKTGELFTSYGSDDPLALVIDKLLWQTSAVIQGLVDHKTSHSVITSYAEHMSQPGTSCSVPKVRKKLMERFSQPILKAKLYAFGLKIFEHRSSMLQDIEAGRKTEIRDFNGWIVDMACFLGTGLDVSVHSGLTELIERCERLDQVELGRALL

SMILES	spectrophotometric NADPH oxidation at 340 nm (0.29 mM NADPH)	spectrophotometric NADPH oxidation at 340 nm
CC(C)C(=O)C(=O)O [2-Kiv]	The enzyme exhibited the highest activity towards 2-Kiv as substrate	
NC(=O)C1=CN([C@@H]2O[C@H](COP(=O)(O)OP(=O)(O)OC[C@H]3O[C@@H](n4cnc5c(N)ncnc54)[C@H](OP(=O)(O)O)[C@@H]3O)[C@@H](O)[C@H]2O)C=CC1 [NADPH]		KivRFp showed higher coenzyme specificity with respect to NADPH than NADH

— publication PMC3478992, “Cloning and characterization of a novel 2-ketoisovalerate reductase from the beauvericin producer Fusarium proliferatum LF061” (BMC Biotechnology, 2012)
